Experimental data as given in paper PMC8307317, “Point-Substitution of Phenylalanine Residues of 26RFa Neuropeptide: A Structure-Activity Relationship Study” (Molecules, 2021).
Read-outs that look alike come from different tables or passages of the source. Starred links: 1 amine or outer side, 2 acyl side, 3 side chain; linkers in the order of their positions; H or OH if unused. Positions of bridges follow the written chain, without caps; N, C: chain ends. Non-standard residues stand in square brackets, D forms with d. Residues, ends and D or L forms follow the SMILES beside them. *: point of attachment. Ahppa(3S,4S) = O=C(C[C@H](O)[C@H](Cc1ccccc1)N[*:1])[*:2]; Oic = O=C(O)[C@@H]1C[C@@H]2CCCC[C@@H]2N1; X7 = O=C(C(c1ccc(C(F)(F)F)cc1)N1CCNCC1)*; X9 = NC(=O)C[C@H](O)[C@H](Cc1ccccc1)N*; X3 = O=C(C(c1cccc(F)c1)N1CCNCC1)*; X6 = O=C(C(c1ccc(F)cc1)N1CCNCC1)*; X8 = O=C(C(c1ccccc1F)N1CCNCC1)*; dTic = O=C(O)[C@H]1Cc2ccccc2CN1; X2 = O=C(C(c1ccccc1)N1CCNCC1)*; Nphe = O=C(O)CNCc1ccccc1

Target: T1, human QRFPR (hQRFPR) (Homo sapiens, UniProt Q96P65)
T1 construct: expressed in transfected cells; host or cells: CHO cells, stably transfected with hQRFPR (G418 selection) and Gα16 (hygromycin B selection)
T1 sequence (Q96P65 1-431): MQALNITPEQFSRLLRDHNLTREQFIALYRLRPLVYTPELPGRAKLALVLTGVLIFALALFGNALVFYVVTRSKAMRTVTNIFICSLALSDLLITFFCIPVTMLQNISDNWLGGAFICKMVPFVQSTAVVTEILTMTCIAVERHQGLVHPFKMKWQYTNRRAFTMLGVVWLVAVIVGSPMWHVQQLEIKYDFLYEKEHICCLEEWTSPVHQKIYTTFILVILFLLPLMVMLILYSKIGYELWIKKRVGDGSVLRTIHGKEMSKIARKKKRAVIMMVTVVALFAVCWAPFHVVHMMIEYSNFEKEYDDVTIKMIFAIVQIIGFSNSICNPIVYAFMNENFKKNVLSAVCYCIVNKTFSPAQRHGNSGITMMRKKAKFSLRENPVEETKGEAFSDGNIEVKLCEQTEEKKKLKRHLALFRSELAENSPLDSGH
Assay: Calcium mobilization assay, agonist mode ([Ca2+]i in Gα16-hQRFPR-transfected CHO cells)
Type: cell-based
Protocol: Stably transfected hQRFPR CHO cells were obtained as previously described. The cells were maintained in F-12 nutrient mixture (Ham-F12) medium supplemented with 10% fetal bovine serum, 2 mM glutamine, and penicillin-streptomycin. Expression of Gα16 cells was maintained using selection antibiotic hygromycin B (200 µg/mL) and that of hQRFPR using geneticin G418 (500 µg/mL) (Life Technologies, Villebon-Sur-Yvette, France) in a humidified 5% CO2 atmosphere at 37 °C.
Changes in intracellular Ca^2+ concentrations induced by 26RFa(20–26) analogs in CHO-Gα16-hQRFPR-transfected cells were measured on a benchtop scanning fluorometer Flexstation III (Molecular Devices, Sunnyvale, CA, USA) as previously described. Briefly, 96-well assay black plates with clear bottoms (Corning international, Avon, France) were seeded at a density of 40,000 cells/well 24 h prior to assay. For profiling agonistic experiments, cells were loaded with 2 µM Fluo-4 acetoxymethyl ester (AM) (Invitrogen) for 1 h in the presence of 0.01% pluronic acid, washed thrice, and incubated for 30 min with standard HBSS containing 2.5 mM probenecid and 5 mM HEPES. Compounds to be tested were added at final concentrations ranging from 10^−11 to 10^−5 M in HBSS, and the fluorescence intensity was measured during 3 min. To evaluate the antagonistic potency of the test compounds, cells were incubated with each compound over 15 min after Fluo-4 AM loading. Then, during fluorescence recording, a pulse of 26RFa was administered at a final concentration of 10^−7 M. After subtraction of the mean fluorescence background, the baseline was normalized to 100%. Fluorescence peak values were determined for each concentration of compound.
Calcium experiments were performed in triplicate, and data, expressed as mean ± SEM of at least three distinct experiments, were analyzed with the Prism 8.0 software (Graphpad Software, San Diego, CA, USA). EC50 and the IC50 values were determined from concentration–response curves using a sigmoidal dose–response fit with variable slope from at least three independent determinations. Differences between 26RFa(20–26) and analog activities were analyzed by the Mann–Whitney test. p values < 0.05 were considered significant.

[1] = [Ca2+]i mobilization in Gα16-hQRFPR-transfected CHO cells, mean of at least three independent experiments performed in triplicate, read-out: EC50

Structure (SMILES)	EC50 [1]	EC50 (single prototype curve, triplicate, basal [Ca2+]i mobilization, read-out: EC50 calculated from representative dose–response curves (Figure 3))
N=C(N)NCCC[C@H](NC(=O)[C@H](Cc1ccccc1)NC(=O)[C@H](CO)NC(=O)CN(Cc1ccccc1)C(=O)CNC(=O)CN)C(=O)N[C@@H](Cc1ccccc1)C(N)=O [Compound 31, [NPhe^22]26RFa(20–26)] (H-GG[Nphe]SFRF-NH2)	0.578 µM	0.149 µM
N=C(N)NCCC[C@H](NC(=O)CN(Cc1ccccc1)C(=O)[C@H](CO)NC(=O)[C@H](Cc1ccccc1)NC(=O)CNC(=O)CN)C(=O)N[C@@H](Cc1ccccc1)C(N)=O [Compound 32, [NPhe^24]26RFa(20–26)] (H-GGFS[Nphe]RF-NH2)	> 10 µM	–
N=C(N)NCCC[C@H](NC(=O)[C@H](Cc1ccccc1)NC(=O)[C@H](CO)NC(=O)[C@H](Cc1ccccc1)NC(=O)CNC(=O)CN)C(=O)N(CC(N)=O)Cc1ccccc1 [Compound 33, [NPhe^26]26RFa(20–26)] (H-GGFSFR[Nphe]-NH2)	> 10 µM	–
N=C(N)NCCC[C@H](NC(=O)[C@H](Cc1ccccc1)NC(=O)[C@H](CO)NC(=O)C[C@H](O)[C@H](Cc1ccccc1)NC(=O)CNC(=O)CN)C(=O)N[C@@H](Cc1ccccc1)C(N)=O [Compound 34, [AHPPA^22]26RFa(20–26)] (H-GG[Ahppa(3S,4S)]SFRF-NH2)	2.85 µM	–
N=C(N)NCCC[C@H](NC(=O)C[C@H](O)[C@H](Cc1ccccc1)NC(=O)[C@H](CO)NC(=O)[C@H](Cc1ccccc1)NC(=O)CNC(=O)CN)C(=O)N[C@@H](Cc1ccccc1)C(N)=O [Compound 35, [AHPPA^24]26RFa(20–26)] (H-GGFS[Ahppa(3S,4S)]RF-NH2)	> 10 µM	–
N=C(N)NCCC[C@H](NC(=O)[C@H](Cc1ccccc1)NC(=O)[C@H](CO)NC(=O)[C@H](Cc1ccccc1)NC(=O)CNC(=O)CN)C(=O)N[C@@H](Cc1ccccc1)[C@@H](O)CC(N)=O [Compound 36, [AHPPA^26]26RFa(20–26)] (H-GGFSFR-X9)	> 10 µM	–
N=C(N)NCCC[C@H](NC(=O)[C@H](Cc1ccccc1)NC(=O)[C@H](CO)NC(=O)[C@@H](Cc1c[nH]c2ccccc12)NC(=O)CNC(=O)CN)C(=O)N[C@@H](Cc1ccccc1)C(N)=O [Compound 37, [DTrp^22]26RFa(20–26)] (H-GG[dW]SFRF-NH2)	6.16 µM	–
N=C(N)NCCC[C@H](NC(=O)[C@@H](Cc1c[nH]c2ccccc12)NC(=O)[C@H](CO)NC(=O)[C@H](Cc1ccccc1)NC(=O)CNC(=O)CN)C(=O)N[C@@H](Cc1ccccc1)C(N)=O [Compound 38, [DTrp^24]26RFa(20–26)] (H-GGFS[dW]RF-NH2)	> 10 µM	–
N=C(N)NCCC[C@H](NC(=O)[C@H](Cc1ccccc1)NC(=O)[C@H](CO)NC(=O)[C@H]1Cc2ccccc2CN1C(=O)CNC(=O)CN)C(=O)N[C@@H](Cc1ccccc1)C(N)=O [Compound 40, [DTic^22]26RFa(20–26)] (H-GG[dTic]SFRF-NH2)	4.99 µM	–
N=C(N)NCCC[C@H](NC(=O)[C@H]1Cc2ccccc2CN1C(=O)[C@H](CO)NC(=O)[C@H](Cc1ccccc1)NC(=O)CNC(=O)CN)C(=O)N[C@@H](Cc1ccccc1)C(N)=O [Compound 41, [DTic^24]26RFa(20–26)] (H-GGFS[dTic]RF-NH2)	6.2 µM	–
N=C(N)NCCC[C@H](NC(=O)[C@H](Cc1ccccc1)NC(=O)[C@H](CO)NC(=O)[C@H](Cc1ccccc1)NC(=O)CNC(=O)CN)C(=O)N1Cc2ccccc2C[C@@H]1C(N)=O [Compound 42, [DTic^26]26RFa(20–26)] (H-GGFSFR[dTic]-NH2)	> 10 µM	–
N=C(N)NCCC[C@H](NC(=O)[C@H](Cc1ccccc1)NC(=O)[C@H](CO)NC(=O)[C@@H]1C[C@@H]2CCCC[C@@H]2N1C(=O)CNC(=O)CN)C(=O)N[C@@H](Cc1ccccc1)C(N)=O [Compound 43, [Oic^22]26RFa(20–26)] (H-GG[Oic]SFRF-NH2)	> 10 µM	–
N=C(N)NCCC[C@H](NC(=O)[C@@H]1C[C@@H]2CCCC[C@@H]2N1C(=O)[C@H](CO)NC(=O)[C@H](Cc1ccccc1)NC(=O)CNC(=O)CN)C(=O)N[C@@H](Cc1ccccc1)C(N)=O [Compound 44, [Oic^24]26RFa(20–26)] (H-GGFS[Oic]RF-NH2)	> 10 µM	–
N=C(N)NCCC[C@H](NC(=O)[C@H](Cc1ccccc1)NC(=O)[C@H](CO)NC(=O)[C@H](Cc1ccccc1)NC(=O)CNC(=O)CN)C(=O)N1[C@H](C(N)=O)C[C@@H]2CCCC[C@@H]21 [Compound 45, [Oic^26]26RFa(20–26)] (H-GGFSFR[Oic]-NH2)	> 10 µM	–
N=C(N)NCCC[C@H](NC(=O)[C@@H]1CSSC[C@H](NC(=O)CNC(=O)CN)C(=O)N[C@@H](CO)C(=O)N1)C(=O)N[C@@H](Cc1ccccc1)C(N)=O [Compound 46, [Cys^22,24]26RFa(20–26)] (H-GGCSCRF-NH2; disulfide 3-5)	> 10 µM	–
N=C(N)NCCC[C@@H]1NC(=O)[C@H](Cc2ccccc2)NC(=O)[C@H](CO)NC(=O)[C@@H](NC(=O)CNC(=O)CN)CSSC[C@@H](C(N)=O)NC1=O [Compound 47, [Cys^22,26]26RFa(20–26)] (H-GGCSFRC-NH2; disulfide 3-7)	> 10 µM	–
N=C(N)NCCC[C@@H]1NC(=O)[C@@H](NC(=O)[C@H](CO)NC(=O)[C@H](Cc2ccccc2)NC(=O)CNC(=O)CN)CSSC[C@@H](C(N)=O)NC1=O [Compound 48, [Cys^24,26]26RFa(20–26)] (H-GGFSCRC-NH2; disulfide 5-7)	> 10 µM	–
N=C(N)NCCC[C@H](NC(=O)[C@H](Cc1ccccc1)NC(=O)[C@H](CO)NC(=O)C(c1ccccc1)N1CCNCC1)C(=O)N[C@@H](Cc1ccccc1)C(N)=O (stereo partly shown) [Compound 49, [Cmpi(Phg)^22]26RFa(22–26)] (X2-SFRF-NH2)	> 10 µM	–
N=C(N)NCCC[C@H](NC(=O)[C@H](Cc1ccccc1)NC(=O)[C@H](CO)NC(=O)C(c1ccccc1)N1CCNCC1)C(=O)N[C@@H](Cc1ccccc1)C(N)=O (stereo partly shown) [Compound 50, [Cmpi(Phg)^22]26RFa(22–26)] (X2-SFRF-NH2)	> 10 µM	–
N=C(N)NCCC[C@H](NC(=O)[C@H](Cc1ccccc1)NC(=O)[C@H](CO)NC(=O)C(c1ccc(F)cc1)N1CCNCC1)C(=O)N[C@@H](Cc1ccccc1)C(N)=O (stereo partly shown) [Compound 51, [Cmpi(4-FPhg)^22]26RFa(22–26)] (X6-SFRF-NH2)	4.05 µM	–
N=C(N)NCCC[C@H](NC(=O)[C@H](Cc1ccccc1)NC(=O)[C@H](CO)NC(=O)C(c1ccc(F)cc1)N1CCNCC1)C(=O)N[C@@H](Cc1ccccc1)C(N)=O (stereo partly shown) [Compound 52, [Cmpi(4-FPhg)^22]26RFa(22–26)] (X6-SFRF-NH2)	1.66 µM	–
N=C(N)NCCC[C@H](NC(=O)[C@H](Cc1ccccc1)NC(=O)[C@H](CO)NC(=O)C(c1cccc(F)c1)N1CCNCC1)C(=O)N[C@@H](Cc1ccccc1)C(N)=O (stereo partly shown) [Compound 53, [Cmpi(3-FPhg)^22]26RFa(22–26)] (X3-SFRF-NH2)	3.56 µM	–
N=C(N)NCCC[C@H](NC(=O)[C@H](Cc1ccccc1)NC(=O)[C@H](CO)NC(=O)C(c1cccc(F)c1)N1CCNCC1)C(=O)N[C@@H](Cc1ccccc1)C(N)=O (stereo partly shown) [Compound 54, [Cmpi(3-FPhg)^22]26RFa(22–26)] (X3-SFRF-NH2)	2.71 µM	–
N=C(N)NCCC[C@H](NC(=O)[C@H](Cc1ccccc1)NC(=O)[C@H](CO)NC(=O)C(c1ccccc1F)N1CCNCC1)C(=O)N[C@@H](Cc1ccccc1)C(N)=O (stereo partly shown) [Compound 55, [Cmpi(2-FPhg)^22]26RFa(22–26)] (X8-SFRF-NH2; N-terminus assumed)	2.48 µM	–
N=C(N)NCCC[C@H](NC(=O)[C@H](Cc1ccccc1)NC(=O)[C@H](CO)NC(=O)C(c1ccccc1F)N1CCNCC1)C(=O)N[C@@H](Cc1ccccc1)C(N)=O (stereo partly shown) [Compound 56, [Cmpi(2-FPhg)^22]26RFa(22–26)] (X8-SFRF-NH2)	> 10 µM	–
N=C(N)NCCC[C@H](NC(=O)[C@H](Cc1ccccc1)NC(=O)[C@H](CO)NC(=O)C(c1ccc(C(F)(F)F)cc1)N1CCNCC1)C(=O)N[C@@H](Cc1ccccc1)C(N)=O (stereo partly shown) [Compound 57, [Cmpi(4-TfmPhg)^22]26RFa(22–26)] (X7-SFRF-NH2)	> 10 µM	–
N=C(N)NCCC[C@H](NC(=O)[C@H](Cc1ccccc1)NC(=O)[C@H](CO)NC(=O)C(c1ccc(C(F)(F)F)cc1)N1CCNCC1)C(=O)N[C@@H](Cc1ccccc1)C(N)=O (stereo partly shown) [Compound 58, [Cmpi(4-TfmPhg)^22]26RFa(22–26)] (X7-SFRF-NH2)	> 10 µM	–
